The structures appear in SMILES notation.

In the test the target is T1, L-selectin (Homo sapiens, UniProt P14151).
T1 construct: gene SELL
T1 sequence (P14151 39-372): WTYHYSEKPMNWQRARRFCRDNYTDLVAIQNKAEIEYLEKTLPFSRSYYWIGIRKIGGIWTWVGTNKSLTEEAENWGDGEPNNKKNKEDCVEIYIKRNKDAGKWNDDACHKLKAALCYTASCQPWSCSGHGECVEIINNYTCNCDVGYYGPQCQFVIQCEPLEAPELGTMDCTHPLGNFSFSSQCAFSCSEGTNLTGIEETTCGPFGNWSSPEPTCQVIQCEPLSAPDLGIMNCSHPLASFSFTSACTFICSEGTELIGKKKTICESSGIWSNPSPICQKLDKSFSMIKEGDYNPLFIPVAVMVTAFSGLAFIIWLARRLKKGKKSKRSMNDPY
The test is described as follows: competitive SPR binding assay. Background: SPR reads the build-up and loss of mass on a sensor chip optically.

As usually defined, the IC50 is the concentration at which inhibition is half-maximal. A lower IC50 goes with greater potency in that assay. `O=C(NC(COS(=O)(=O)O)COS(=O)(=O)O)c1ccc(C(=O)NC(COS(=O)(=O)O)COS(=O)(=O)O)cc1` [compound 32, O-sulfated divalent amide 32] yielded an IC50 of 1 µM. In other words, the single-digit micromolar range.

`CC1(C)O[C@H](COS(=O)(=O)O)[C@H](NC(=O)c2ccc(-c3cc(-c4ccc(C(=O)N[C@@H]5[C@@H](OS(=O)(=O)O)[C@H](COS(=O)(=O)O)C(C)(C)O[C@@H]5COS(=O)(=O)O)cc4)cc(-c4ccc(C(=O)N[C@@H]5[C@@H](OS(=O)(=O)O)[C@H](COS(=O)(=O)O)C(C)(C)O[C@@H]5COS(=O)(=O)O)cc4)c3)cc2)[C@@H](OS(=O)(=O)O)[C@@H]1COS(=O)(=O)O` [compound 34, O-sulfated trivalent amide 34] had an IC50 of 2 µM.

The values above are taken from publication PMC4464473, “Synthesis of multivalent carbohydrate mimetics with aminopolyol end groups and their evaluation as L-selectin inhibitors” (Beilstein Journal of Organic Chemistry, 2015).
